These results are taken from US20240358025A1, “INSECT, BACTERIAL, AND/OR FUNGAL CONTROL COMPOSITION” (priority 2021, published 2024).

Molecules are shown by their SMILES.

One data set has as its system Escherichia coli. Kind of data set: E. coli growth inhibition by individual components and combinations (CFU count). Format: cell-based. The settings on record: for CFUs / CFUs/mL: CFU after 24 hours; for reduction of growth of E. coli (in words): component alone. How it is done:
(§1) Escherichia coli was grown in the presence of each component or combinations to determine the inhibitory potential. […] The appropriate amount of each component was added to 5 mL of LB media, and each culture was inoculated with 50 μL of a 12 hour old culture of E. coli. The cultures were grown for 12 hours at 37° C. with shaking at 225 rpm before being serial diluted and plated onto solid LB agar plates (5 μL per plate) in triplicate. Plates were incubated for 24 hours at 37° C., and then colonies were counted to determine the inhibitory potential.

For data set [1], the system named is Pseudomonas aeruginosa ATCC 9027. Description: Inhibition assay of essential oils and pairings in base solution, log reduction and synergy. Format: cell-based. As to conditions: pairing Clove + Geraniol; log reduction of pairing divided by that of the pure oil named.
The subject of data set [2] is Banded crickets. Description: Direct spray insecticides against banded crickets. The class given is in vivo. The settings on record: 0.75 gallons per acre. The method, then:
The Test Arenas were used to contain the test systems during the test substance applications.
Post-Treatment Arenas: 20 oz. SOLO cups with mesh lids were used as post-treatment arenas. A potato cutting was added as a food source. Clean post-treatment arenas were used to contain the test systems after exposure to the test substances.
Application Equipment: A compressed air sprayer with a flat fan nozzle, pressurized to 20 PSI was used to make applications.
(§2) The test substances were shaken and then mixed at a rate of 5.324 mL of concentrate per 200 ml of water.
The diluted test substances were adequately shaken prior to applications. A track spraying jig was used to make a linear application. A single cartridge containing 10 test systems was placed in the middle of the spray path. […] This equated to a treatment rate of 0.75 gallons per acre.
The observations were made by raising the test arenas and gently blowing air on the test systems to provoke movement, lightly prodding the test systems, or the test arenas were shaken/agitated to provoke test system movement.
The test systems were transferred from the Treatment Arenas into the clean Post-Treatment Arenas 1 hour after the applications.

Another data set deals with E. coli. Description: E. coli growth inhibition, essential oil comparison in the non-essential oil fraction (CFU count). The class given is cell-based, Escherichia coli. The settings on record: oils in non-essential oil fraction. How it is done: as §1
Combinations of essential oils, each at the concentration indicated in Example 1, were assayed for their inhibitory potential in a similar manner as Example 1.
The essential oils were then tested in the non-essential oil fraction for synergy. […] Also, there was increasing antimicrobial action of the essential oils related to the combination of the oils leading to the highest activity found in the Essential Oil-Ark product.

Data set [3] has as its system Candida albicans ATCC 10231. Description: Inhibition assay of essential oils and pairings in base solution, log reduction and synergy. Format: cell-based. As to conditions: log reduction of pairing divided by that of the pure oil named.
In data set [4] the test system is Banded crickets. Description: Residual insecticides against banded crickets (surfaces aged 7 DAT). The class given is in vivo. As to conditions: 0.75 gallons per acre. The method, then: Post-Treatment Arenas: 20 oz. […] A potato cutting was added as a food source. Clean post-treatment arenas were used to contain the test systems after exposure to the test substances.
as §2
The diluted test substances were adequately shaken prior to applications. A track spraying jig was used to make a linear application. […] This equated to a treatment rate of 0.75 gallons per acre.

As for `CCCCCCCCCCCCCCCCCC(=O)OCC(O)CO` (stereo not drawn) [Glyceryl Monostearate], in the data set with Escherichia coli, the CFUs is 8330000 CFUs, the CFUs/mL stood at 166600000 CFUs/mL and the “reduction of growth of E. coli (in words)” value is recorded as “did not substantially reduce growth of E. coli”.
For `C/C=C/C=C/C(=O)[O-].[K+]` [Potassium Sorbate], in that order: 13000000 CFUs, 260000000 CFUs/mL and “did not substantially reduce growth of E. coli”.
Turning to `CC(C)=CCC/C(C)=C/CO` [Geraniol], the Synergistic advantage in data set [1] stood at 106.3%; in data set [3] (pairing Geraniol + Garlic) it was 120.9%; in data set [3] (pairing Geraniol + Peppermint), 103.9%; in data set [3] (pairing Geraniol + Rosemary) it was 103.9%; in data set [3] (pairing Geraniol + Thyme), 103.9%. Besides, the “efficacy as a direct kill insecticide (in words)” value in the data set with Banded crickets [2] is given as “did not provide high levels of mortality”. For the same molecule, the “Average Percent Mortality” value worked out at 33% with Banded crickets [2] (2 DAT) and 10% with Banded crickets [4] (surface aged 7 DAT, 3 DAT). Besides, the Avg with E. coli (CFU after 24 hours) amounted to 43.333. In addition, the CFUs came to 43333 CFUs with E. coli (CFU after 24 hours) and 2 CFUs in the data set with Escherichia coli. In addition, the CFUs/mL was found to be 866660 CFUs/mL in the data set with E. coli (CFU after 24 hours) and 40 CFUs/mL with Escherichia coli. The “antimicrobial activity (in words)” value in the data set on E. coli is listed as “highest activity of the essential oils”. The “efficacy as a residual insecticide (in words)” value in the data set with Banded crickets [4] (up to 7 days after treatment) is given as “did not provide high levels of mortality”.
